Laboratory results published in PMC7366380, “Discovery of a Potent and Selective Covalent Inhibitor and Activity-Based Probe for the Deubiquitylating Enzyme UCHL1, with Antifibrotic Activity” (Journal of the American Chemical Society, 2020).

Key:
[1] = target: T1, UCHL3 (Homo sapiens, UniProt P15374); assay: Biochemical DUB selectivity profiling assay: UCHL3; details: Ub-Lys-TAMRA 50 nM, buffer A; read-out: Biochemical IC50 range, UCHL3
T1 sequence (P15374 1-230): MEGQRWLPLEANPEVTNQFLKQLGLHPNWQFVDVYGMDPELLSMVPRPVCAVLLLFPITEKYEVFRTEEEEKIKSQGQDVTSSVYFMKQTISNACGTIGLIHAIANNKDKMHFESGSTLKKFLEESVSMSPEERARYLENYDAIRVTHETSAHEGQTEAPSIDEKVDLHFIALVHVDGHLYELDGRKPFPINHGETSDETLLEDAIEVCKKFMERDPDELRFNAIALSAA
Experimental: (§1) DUB Assay Substrate Substrate
(§2) Buffer Concentration (nM) […]
(§3) Sepharose® 4B resin (GE Healthcare).
(§4) 10 kDa molecular weight cut-off (MWCO)).
(§5) Fractions containing protein
(§6) Protein concentration was […]
(§7) reaction volume of 21 μL. […]
(§8) compound (final concentration 5 nM).
(§9) IC50 values were determined
(§10) Biochemical DUB selectivity profiling assays […]
(§11) in 40 µL total reaction volume.

[2] = target: T2, Cezanne1 (Homo sapiens, UniProt Q6GQQ9); assay: Biochemical DUB selectivity profiling assay: Cezanne1; details: Ub-Lys-TAMRA 50 nM, buffer B; read-out: Biochemical IC50 range, Cezanne1
T2 sequence (Q6GQQ9 1-843): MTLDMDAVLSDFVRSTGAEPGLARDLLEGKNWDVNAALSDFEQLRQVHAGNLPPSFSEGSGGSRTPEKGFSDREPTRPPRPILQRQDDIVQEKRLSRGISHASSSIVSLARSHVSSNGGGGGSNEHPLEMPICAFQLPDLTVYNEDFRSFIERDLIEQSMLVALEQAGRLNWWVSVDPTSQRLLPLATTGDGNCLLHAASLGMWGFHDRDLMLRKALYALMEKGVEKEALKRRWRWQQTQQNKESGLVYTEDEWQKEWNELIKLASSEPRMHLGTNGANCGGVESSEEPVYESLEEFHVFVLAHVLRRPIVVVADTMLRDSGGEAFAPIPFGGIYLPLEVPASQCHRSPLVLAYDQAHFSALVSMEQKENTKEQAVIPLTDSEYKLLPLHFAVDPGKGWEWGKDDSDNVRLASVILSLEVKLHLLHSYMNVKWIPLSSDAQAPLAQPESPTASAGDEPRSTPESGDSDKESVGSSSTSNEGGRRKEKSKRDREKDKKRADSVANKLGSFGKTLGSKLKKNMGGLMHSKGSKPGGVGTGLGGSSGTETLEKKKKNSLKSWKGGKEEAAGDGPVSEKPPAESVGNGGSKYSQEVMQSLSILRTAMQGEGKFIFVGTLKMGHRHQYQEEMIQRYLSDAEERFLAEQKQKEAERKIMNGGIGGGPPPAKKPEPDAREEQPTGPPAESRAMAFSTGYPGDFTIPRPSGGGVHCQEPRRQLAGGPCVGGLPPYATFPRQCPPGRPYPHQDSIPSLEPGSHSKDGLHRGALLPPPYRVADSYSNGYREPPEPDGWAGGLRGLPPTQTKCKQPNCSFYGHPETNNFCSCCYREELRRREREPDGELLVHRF
Experimental: as §1, §2, §3, §4, §5, §6, §7, §8, §9, §10, §11

[3] = target: T3, UCHL5 (Homo sapiens, UniProt Q9Y5K5); assay: biochemical
T3 sequence (Q9Y5K5 1-329): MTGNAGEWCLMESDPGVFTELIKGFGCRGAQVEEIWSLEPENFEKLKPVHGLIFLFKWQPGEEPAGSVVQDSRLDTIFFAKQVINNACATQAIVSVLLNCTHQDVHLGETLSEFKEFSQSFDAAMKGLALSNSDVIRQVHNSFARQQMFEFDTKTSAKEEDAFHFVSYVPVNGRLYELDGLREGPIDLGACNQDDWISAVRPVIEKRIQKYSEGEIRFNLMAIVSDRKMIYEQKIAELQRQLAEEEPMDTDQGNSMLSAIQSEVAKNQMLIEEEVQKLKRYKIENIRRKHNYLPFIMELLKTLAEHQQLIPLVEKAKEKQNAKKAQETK

[4] = target: T4, TRABID (Homo sapiens, UniProt Q9UGI0); assay: Biochemical DUB selectivity profiling assay: TRABID; details: Ub-Rho110 400 nM, buffer B; read-out: Biochemical IC50 range, TRABID
T4 sequence (Q9UGI0 1-708): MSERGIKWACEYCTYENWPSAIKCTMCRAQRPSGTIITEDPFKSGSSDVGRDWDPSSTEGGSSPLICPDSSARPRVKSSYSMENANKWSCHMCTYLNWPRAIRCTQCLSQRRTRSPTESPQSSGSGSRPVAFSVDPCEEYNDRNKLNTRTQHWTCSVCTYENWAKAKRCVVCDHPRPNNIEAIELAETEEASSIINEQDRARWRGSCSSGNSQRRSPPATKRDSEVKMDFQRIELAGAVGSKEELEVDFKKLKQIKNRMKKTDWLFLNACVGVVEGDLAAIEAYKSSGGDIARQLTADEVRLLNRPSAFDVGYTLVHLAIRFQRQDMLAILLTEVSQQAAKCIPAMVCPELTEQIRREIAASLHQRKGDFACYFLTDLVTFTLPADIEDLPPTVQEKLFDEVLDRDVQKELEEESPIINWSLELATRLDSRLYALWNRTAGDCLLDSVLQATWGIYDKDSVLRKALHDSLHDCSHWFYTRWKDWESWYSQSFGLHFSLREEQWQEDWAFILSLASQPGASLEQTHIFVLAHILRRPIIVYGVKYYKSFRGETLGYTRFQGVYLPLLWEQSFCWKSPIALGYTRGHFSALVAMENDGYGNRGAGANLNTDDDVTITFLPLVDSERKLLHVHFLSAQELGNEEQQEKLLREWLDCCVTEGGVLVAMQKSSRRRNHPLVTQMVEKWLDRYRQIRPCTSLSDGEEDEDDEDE
Experimental: as §1, §2, §3, §4, §5, §6, §7, §8, §9, §10, §11

[5] = target: USP1 (Homo sapiens, UniProt O94782); assay: biochemical
USP1, sequence (O94782 whole entry, species assumed): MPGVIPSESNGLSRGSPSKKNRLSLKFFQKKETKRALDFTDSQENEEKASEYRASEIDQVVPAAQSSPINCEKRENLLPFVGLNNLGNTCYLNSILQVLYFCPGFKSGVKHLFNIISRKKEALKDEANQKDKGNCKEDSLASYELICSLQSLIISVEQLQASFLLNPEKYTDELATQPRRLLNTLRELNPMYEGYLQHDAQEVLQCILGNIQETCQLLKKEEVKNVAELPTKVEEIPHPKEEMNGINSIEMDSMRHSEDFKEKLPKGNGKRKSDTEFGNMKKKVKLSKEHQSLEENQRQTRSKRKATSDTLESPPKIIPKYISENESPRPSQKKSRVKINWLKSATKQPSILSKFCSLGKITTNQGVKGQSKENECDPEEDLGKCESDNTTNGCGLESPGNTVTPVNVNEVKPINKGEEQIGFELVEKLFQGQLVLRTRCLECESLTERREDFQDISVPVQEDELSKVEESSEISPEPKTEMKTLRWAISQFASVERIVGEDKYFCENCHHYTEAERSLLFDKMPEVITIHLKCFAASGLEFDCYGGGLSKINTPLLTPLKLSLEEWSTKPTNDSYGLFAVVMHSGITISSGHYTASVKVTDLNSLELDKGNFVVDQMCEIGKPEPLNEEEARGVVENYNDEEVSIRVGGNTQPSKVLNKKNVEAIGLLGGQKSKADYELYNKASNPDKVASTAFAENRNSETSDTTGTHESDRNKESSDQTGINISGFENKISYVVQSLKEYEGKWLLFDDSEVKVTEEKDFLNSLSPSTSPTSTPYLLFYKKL
USP1, sequence (Q8TAF3 whole entry partner, species assumed): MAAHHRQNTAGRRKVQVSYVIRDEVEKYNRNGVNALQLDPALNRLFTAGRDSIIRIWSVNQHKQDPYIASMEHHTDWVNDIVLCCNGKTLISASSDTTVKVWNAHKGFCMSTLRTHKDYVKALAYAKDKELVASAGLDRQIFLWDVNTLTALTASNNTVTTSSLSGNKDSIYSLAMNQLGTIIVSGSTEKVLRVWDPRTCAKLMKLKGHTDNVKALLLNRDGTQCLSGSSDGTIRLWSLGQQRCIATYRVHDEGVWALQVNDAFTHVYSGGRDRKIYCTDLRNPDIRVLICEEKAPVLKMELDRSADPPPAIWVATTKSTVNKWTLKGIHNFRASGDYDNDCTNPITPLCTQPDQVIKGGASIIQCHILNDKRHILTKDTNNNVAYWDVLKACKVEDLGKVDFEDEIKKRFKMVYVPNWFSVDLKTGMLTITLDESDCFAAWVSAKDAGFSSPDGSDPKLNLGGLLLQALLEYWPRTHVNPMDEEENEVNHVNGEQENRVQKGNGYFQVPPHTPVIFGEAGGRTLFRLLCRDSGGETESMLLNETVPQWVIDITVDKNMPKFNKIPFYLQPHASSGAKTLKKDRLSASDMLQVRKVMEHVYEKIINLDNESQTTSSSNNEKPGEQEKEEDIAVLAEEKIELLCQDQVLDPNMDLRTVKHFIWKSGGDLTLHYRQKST

[6] = FMT assay, cell number (DAPI nuclei count); details: human

Row | IC50 [1] [µM] | IC50 [2] [µM] | IC50 [3] [µM] | IC50 [4] [µM] | IC50 [5] [µM] | EC50 at 3 days [6] [µM] | Compound
1 | > 10 | > 10 | > 10 | > 10 | > 10 | ~23 | N#CN1CCC[C@@H]1C(=O)N1CCc2c(-c3c[nH]c4ncccc34)cccc21 [Compound 3]
2 | 1 to 10 | > 10 | > 10 | > 10 | > 10 | ~11 | N#CN1CCC[C@H]1C(=O)N1CCc2c(-c3c[nH]c4ncccc34)cccc21 [Compound 1]
3 | 1 to 10 | > 10 | – | > 10 | – | ~11 | C#Cc1cnc2[nH]cc(-c3cccc4c3CCN4C(=O)[C@@H]3CCCN3C#N)c2c1 [Compound 2]

Row | Compound | IC50 [1] [µM] | IC50 [2] [µM] | IC50 [3] [µM] | IC50 [4] [µM] | IC50 [5] [µM] | EC50 at 3 days [6] [µM]
4 | CC(=O)O/N=C1\C(=O)N(Cc2cc(Cl)ccc2Cl)c2ccc(Cl)cc21 [LDN-57444, reference compound] | > 10 | > 10 | > 10 | > 10 | > 10 | –
